Measured values published in patent US9238040B2, “Chemoprevention of colorectal cancer by mesalamine/sulfasalazine” (RUTGERS, THE STATE UNIVERSITY OF NEW JERSEY, priority 2005, dated 2016).

Assays:
TC22 = test: FACS of TC22 expression in LS180 colon cancer cells (antibody TC22-4); format: cell-based, human; conditions: 4 hours, Serum Free Media
Procedure: Specific monoclonal antibodies, CG3 for hTM5 and TC22-4 for TC22 were used against the cells in a fluorescent activated cell sorter (FACS). Reverse transcriptase PCR (RT-PCR) was utilized to quantify the transcription of hTM5 and TC-22. […] Dishes were washed with 10 ml PBS 3 times. Cells were detached with 0.25% trypsin-EDTA and collected. All cells were >90% viable. The cells were washed and then fixed by using 4% paraformaldehyde for 5 minutes. Cells were washed 2 times. Cells were then resuspended and the first antibody was added: MOPC IgM(0.5 mg/mL) 1 μl (1:100), MOPCIgG(0.5 mg/mL) 1 μl (1:100), CG3 IgM(2.4 mg/mL) 1 μL of (2+3 μL Buffer) (1:250) for hTM5, TC22-4 IgG(30 mg/mL) 1 μL of (1+9 uL Buffer) (1:1000) for TC22. The suspension was incubated at 4° C. for 30 minutes, shaken and washed (2 times) with 30 vol. of PBS/0.5 BSA/2 mm EDTA. The second antibody was added: 1 μl tube (1:100) Cy2 (Cyanine)-conj. G-α-M IgM or Cy2 (Cyanine)-conj. G-α-M IgM, then incubated at 4° C. for 30 minutes, shaken and washed (2 times) with 100 vol. buffer 2 times. The cells were then resuspended in 1 ml wash buffer. FACS was used to detect hTM5 and TC22 expression within 1 hour. […] The graphs show the number of cells as a function of fluorescence intensity. LM1 represents the percent of cells present but not expressing TC22. LM2 represents the percent of cells containing TC22.

LS180 cells = test: Microarray analysis of gene expression in LS180 cells; format: cell-based, human; conditions: 200 mM, 4 hours and 24 hours, compared with 5-ASA untreated LS180 cells

Nc1ccc(O)c(C(=O)O)c1 [5-ASA, 5-Aminosalicylic Acid]
expression of TC22 (FACS, FIG. 1f) (TC22): reduced the expression of TC22 | Number of genes down-regulated (LS180 cells): >385 | Number of genes up-regulated (LS180 cells): >194
